For one molecule, IC50 results are on record in patent US10512632B2, “1 H-pyrazolo[4,3-B]pyridines as PDE1 inhibitors” (priority 2016, dated 2019).

One experiment concerns the target PDE1B (Homo sapiens (Human), UniProt Q01064). Kind of experiment: PDE1 inhibition assay (PDE1B), SPA with tritium labelled cAMP. It counts as biochemical. The settings on record: 15 nM tritium labelled cAMP, 1 hr at room temperature. The text has this:
(§1) Table 1 lists the IC50 value for inhibition of PDE1 by the compounds of the invention. […] PDE1 assays are described in the Experimental Section.

For a further experiment, the target named is PDE1A (Homo sapiens (Human), UniProt P54750). As to the kind of experiment: PDE1 inhibition assay (PDE1A), SPA with tritium labelled cAMP. The experiment is classed as biochemical. Particulars: 15 nM tritium labelled cAMP, 1 hr at room temperature.
Chain of PDE1A (P54750 whole entry): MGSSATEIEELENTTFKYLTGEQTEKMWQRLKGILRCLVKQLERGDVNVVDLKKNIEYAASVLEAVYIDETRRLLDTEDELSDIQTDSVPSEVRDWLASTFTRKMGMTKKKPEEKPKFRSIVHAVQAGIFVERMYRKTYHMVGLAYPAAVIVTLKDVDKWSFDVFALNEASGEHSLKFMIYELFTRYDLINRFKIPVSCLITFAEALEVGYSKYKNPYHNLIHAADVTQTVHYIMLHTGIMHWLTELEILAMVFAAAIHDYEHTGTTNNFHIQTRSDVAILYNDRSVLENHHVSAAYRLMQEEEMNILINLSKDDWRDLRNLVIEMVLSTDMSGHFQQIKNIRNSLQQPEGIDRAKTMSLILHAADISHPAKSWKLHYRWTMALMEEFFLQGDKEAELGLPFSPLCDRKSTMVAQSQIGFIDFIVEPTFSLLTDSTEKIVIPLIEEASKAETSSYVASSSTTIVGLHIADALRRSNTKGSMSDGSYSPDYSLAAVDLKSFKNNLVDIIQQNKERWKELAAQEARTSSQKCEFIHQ
Source text: as §1

As a reminder, the IC50 is the concentration needed to halve the response being measured.

Chain of PDE1B (Q01064 whole entry): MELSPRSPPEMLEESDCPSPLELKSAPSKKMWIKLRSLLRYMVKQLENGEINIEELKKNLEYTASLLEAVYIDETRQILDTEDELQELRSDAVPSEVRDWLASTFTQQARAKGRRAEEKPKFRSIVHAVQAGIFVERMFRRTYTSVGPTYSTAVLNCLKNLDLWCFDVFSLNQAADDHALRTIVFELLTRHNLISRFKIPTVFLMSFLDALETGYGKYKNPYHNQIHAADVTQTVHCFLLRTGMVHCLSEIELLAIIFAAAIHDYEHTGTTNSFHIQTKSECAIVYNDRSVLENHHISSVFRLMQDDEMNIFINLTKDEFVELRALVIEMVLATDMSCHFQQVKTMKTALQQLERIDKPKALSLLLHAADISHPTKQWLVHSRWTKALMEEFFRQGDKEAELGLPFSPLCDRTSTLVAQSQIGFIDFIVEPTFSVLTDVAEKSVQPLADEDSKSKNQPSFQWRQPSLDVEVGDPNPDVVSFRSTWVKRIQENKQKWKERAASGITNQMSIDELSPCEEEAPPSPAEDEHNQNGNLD

As to `CCOc1ncccc1-c1cc(NCc2ccncc2OC)c2c(n1)c(C)nn2C(C)C` [Example 172, 5-(2-ethoxy-3-pyridyl)-1-isopropyl-N-[(3-methoxy-4-pyridyl)methyl]-3-methyl-pyrazolo[4,3-b]pyridin-7-amine], the figures for the IC50 on PDE1B and at PDE1A were 0.0055 µM and 0.04 µM, respectively.
